According to patent publication EP0745595A1, “3-(3-Aryloxyphenyl)-1-(substituted methyl)-s-triazine-2,4,6-oxo or thiotrione herbicidal agents” (American Cyanamid Company, priority 1995, dated 1996):

Assays:
Type in all cases: in vivo
[1] = tested on: ECHINOCHLOA CRUS-GALLI, (L) BEAU; test: Postemergence herbicidal evaluation, ECHCG (Barnyardgrass); set-up: key to ECHCG rating / Herbicidal effect rating, ECHCG / ECHCG: 0-9 visual rating scale vs untreated control
How it was run: (§1)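 Ratings (0-9) reflect visual stand, vigor, malformation, size and chlorosis compared with untreated plants, assessed 4-5 weeks after postemergence spraying. Treatment was applied to roughly two-week-old seedlings at about 0.125-0.500 kg/ha in acetone/water with 0.5% Tween 20; replicate tests were averaged.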

CHENOPODIUM ALBUM, L. [2] = test: Preemergence herbicidal evaluation, CHEAL (Lambsquarters, Common); conditions: four to five weeks after treatment
How it was run: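 Seeds sown in potting soil cups, then sprayed preemergence with aqueous acetone compound solution at about 0.125 to 0.50 kg per hectare. Greenhouse-grown, rated 4–5 weeks after treatment on a 0–9 visual scale against control.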

[3] = tested on: ABUTILON THEOPHRASTI, MEDIC.; test: Postemergence herbicidal evaluation, ABUTH (Velvetleaf)
How it was run: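 This postemergence herbicide test used two-week-old velvetleaf seedlings grown in jiffy flats. Each compound was sprayed at 40 psi as a dispersion in 50/50 acetone/water with 0.5% TWEEN®20 surfactant. Plants then received routine greenhouse care. After four to five weeks, injury was scored visually on a 0-9 scale against a control, and replicate tests were averaged.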

CHENOPODIUM ALBUM, L. [4] = test: Postemergence herbicidal evaluation, CHEAL (Lambsquarters, Common)
How it was run: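 Postemergence herbicidal activity on Chenopodium album was tested by spraying two-week-old seedlings grown in jiffy flats with compound in acetone/water (50/50) plus 0.5% TWEEN®20, using a 40 psi nozzle. Four to five weeks after treatment, stand, vigor, malformation, size, chlorosis and overall appearance were scored 0-9 relative to controls, with repeat tests averaged.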

ZEA MAYS L. = test: Postemergence herbicidal evaluation, ZEAMX (Corn, Field)
How it was run: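 This greenhouse postemergence test treated corn plants about two weeks old. Compounds in a 50/50 acetone/water mixture with 0.5% TWEEN®20 were applied through a spray nozzle at 40 psi. After four to five weeks, injury was scored 0-9 against an untreated control, judging stand, vigor, malformation, size, chlorosis and overall appearance. Repeated tests were averaged.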

[5] = tested on: ORYZA SATIVA, L. TEBONNET; test: Rice tolerance to post-transplant applications under flooded paddy conditions, ORYSAT (Rice, Tebonnet); conditions: for ORYSAT herbicidal rating (rice tolerance): post-transplant rice, rated three to four weeks after treatment; for ORYSAT: post-transplanted rice;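 for ORYSAT herbicidal rating (rice tolerance): applied to flooded soil surface three days after transplanting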
How it was run: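 Greenhouse pots of silt loam, each with two transplanted ten-day-old seedlings, are held under 1.5 to 3 cm of standing water. Three days later the compound is applied to the flooded surface at about 0.5, 0.25, 0.125 or 0.063 kg/ha. Damage is scored visually 0-9 after 3-4 weeks.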

[6] = tested on: AMBROSIA ARTEMISIIFOLIA, L.; test: Postemergence herbicidal evaluation, AMBEL (Ragweed, Common)
How it was run: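 Postemergence herbicidal activity on AMBEL (common ragweed) was assessed on two-week-old seedlings grown in jiffy flats. Treatment solutions of 50/50 acetone/water with 0.5% TWEEN®20 surfactant were sprayed at 40 psi. After four to five weeks in the greenhouse, plants were scored 0-9 against a control for stand, vigor, malformation, size, chlorosis and overall appearance, with multiple tests averaged.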

IPOMOEA SPP. = test: Postemergence herbicidal evaluation, IPOSS (Morningglory spp.)
How it was run: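 In this greenhouse postemergence herbicide test on Ipomoea spp. (morningglory), compounds in 50/50 acetone/water with 0.5% TWEEN®20 were sprayed at 40 psi onto seedlings about two weeks old grown in jiffy flats. After four to five weeks, injury was scored on a 0-9 scale covering stand, vigor, malformation, size, chlorosis and overall appearance versus control, with repeat tests averaged.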

[7] = tested on: SETARIA VIRIDIS, (L) BEAU; test: Postemergence herbicidal evaluation, SETVI (Foxtail, Green); set-up: key to SETVI rating / Herbicidal effect rating, SETVI / SETVI: 0-9 visual rating scale vs untreated control
How it was run: as §1

CASSIA OBTUSIFOLIA, L. = test: Postemergence herbicidal evaluation, CASOB (Sicklepod); set-up: key to CASOB rating / Herbicidal effect rating, CASOB / CASOB: 0-9 visual rating scale vs untreated control
How it was run: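 Spray: acetone/water 50/50 + 0.5% TWEEN 20; rate ~0.125–0.500 kg/ha; nozzle 40 psi; ~2-wk seedlings. Read: visual 0–9 rating at 4–5 wk post-treatment vs control; replicate tests averaged.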

[8] = tested on: TRITICUM AESTIVUM, CV. APOLLO; test: Postemergence herbicidal evaluation, TRZAWO (Wheat, Winter, CV. APOLLO)
How it was run: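 This greenhouse postemergence test applied compounds to roughly two-week-old wheat seedlings grown in jiffy flats. The spray solution was 50/50 acetone/water with 0.5% TWEEN®20, a polyoxyethylene sorbitan monolaurate, sprayed from a nozzle run at 40 psi. After four to five weeks of standard greenhouse care, injury was scored from 0 to 9 by comparing stand, vigor, malformation, size, chlorosis and overall appearance with a control. Multiple tests were averaged.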

COC(=O)Cn1c(=O)n(C)c(=O)n(-c2cc(Oc3ccc(C(F)(F)F)cc3Cl)ccc2[N+](=O)[O-])c1=O [Compound 3, Methyl 3-{5-[(2-chloro-α,α,α-trifluoro-p-tolyl)oxy]-2-nitrophenyl}tetrahydro-5-methyl-2,4,6-trioxo-s-triazine-1(2H)-acetate]
Herbicidal effect rating, ECHCG ([1]; 0.031 kg/ha): 4.3
Herbicidal effect rating, ECHCG ([1]; 0.063 kg/ha): 5.1
Herbicidal effect rating, ECHCG ([1]; 0.125 kg/ha): 6.7
Herbicidal effect rating, ECHCG ([1]; 0.250 kg/ha): 7.9
CHEAL rating (CHENOPODIUM ALBUM, L. [2]; Rate 0.125 kg/ha): 9.0
CHEAL rating (CHENOPODIUM ALBUM, L. [2]; Rate 0.250 kg/ha): 9.0
CHEAL rating (CHENOPODIUM ALBUM, L. [2]; Rate 0.500 kg/ha): 9.0
Herbicidal effect rating, ABUTH ([3]; 0.031 kg/ha): 7.3
Herbicidal effect rating, ABUTH ([3]; 0.063 kg/ha): 8.1
Herbicidal effect rating, ABUTH ([3]; 0.125 kg/ha): 8.8
Herbicidal effect rating, ABUTH ([3]; 0.250 kg/ha): 8.9
Herbicidal effect rating, CHEAL (CHENOPODIUM ALBUM, L. [4]; 0.031 kg/ha): 5.1
Herbicidal effect rating, CHEAL (CHENOPODIUM ALBUM, L. [4]; 0.063 kg/ha): 6.0
Herbicidal effect rating, CHEAL (CHENOPODIUM ALBUM, L. [4]; 0.125 kg/ha): 7.2
Herbicidal effect rating, CHEAL (CHENOPODIUM ALBUM, L. [4]; 0.250 kg/ha): 7.4
Herbicidal effect rating, ZEAMX (ZEA MAYS L.; 0.031 kg/ha): 4.6
Herbicidal effect rating, ZEAMX (ZEA MAYS L.; 0.063 kg/ha): 4.8
Herbicidal effect rating, ZEAMX (ZEA MAYS L.; 0.125 kg/ha): 5.8
Herbicidal effect rating, ZEAMX (ZEA MAYS L.; 0.250 kg/ha): 6.9
ORYSAT herbicidal rating (rice tolerance) ([5]; Rate 0.063 kg/ha): 2.7
ORYSAT herbicidal rating (rice tolerance) ([5]; Rate 0.125 kg/ha): 3.0
ORYSAT herbicidal rating (rice tolerance) ([5]; Rate 0.250 kg/ha): 3.8
ORYSAT herbicidal rating (rice tolerance) ([5]; Rate 0.500 kg/ha): 4.0
ORYSAT ([5]; Rate 0.031 kg/ha): 1.0
ORYSAT ([5]; Rate 0.063 kg/ha): 2.7
ORYSAT ([5]; Rate 0.125 kg/ha): 3.0
ORYSAT ([5]; Rate 0.250 kg/ha): 3.8
Herbicidal effect rating, AMBEL ([6]; 0.031 kg/ha): 8.3
Herbicidal effect rating, AMBEL ([6]; 0.063 kg/ha): 8.6
Herbicidal effect rating, AMBEL ([6]; 0.125 kg/ha): 8.8
Herbicidal effect rating, AMBEL ([6]; 0.250 kg/ha): 9.0
Herbicidal effect rating, IPOSS (IPOMOEA SPP.; 0.031 kg/ha): 7.6
Herbicidal effect rating, IPOSS (IPOMOEA SPP.; 0.063 kg/ha): 8.3
Herbicidal effect rating, IPOSS (IPOMOEA SPP.; 0.125 kg/ha): 8.9
Herbicidal effect rating, IPOSS (IPOMOEA SPP.; 0.250 kg/ha): 8.9
Herbicidal effect rating, SETVI ([7]; 0.031 kg/ha): 3.9
Herbicidal effect rating, SETVI ([7]; 0.063 kg/ha): 5.1
Herbicidal effect rating, SETVI ([7]; 0.125 kg/ha): 6.8
Herbicidal effect rating, SETVI ([7]; 0.250 kg/ha): 7.9
Herbicidal effect rating, CASOB (CASSIA OBTUSIFOLIA, L.; 0.031 kg/ha): 7.7
Herbicidal effect rating, CASOB (CASSIA OBTUSIFOLIA, L.; 0.063 kg/ha): 8.4
Herbicidal effect rating, CASOB (CASSIA OBTUSIFOLIA, L.; 0.125 kg/ha): 8.8
Herbicidal effect rating, CASOB (CASSIA OBTUSIFOLIA, L.; 0.250 kg/ha): 8.4
Herbicidal effect rating, TRZAWO ([8]; 0.031 kg/ha): 6.1
Herbicidal effect rating, TRZAWO ([8]; 0.063 kg/ha): 6.8
Herbicidal effect rating, TRZAWO ([8]; 0.125 kg/ha): 7.1
Herbicidal effect rating, TRZAWO ([8]; 0.250 kg/ha): 7.6
